{
  "source": "patent US12570709B2",
  "about": "“Self-assembling peptide amphiphiles displaying a transforming growth factor beta 1 (TGF-ß1) mimetic epitope” (Northwestern University, priority 2021, dated 2026)",
  "key": {"[1]": {"tested_on": "Smad2 phosphorylation (intracellular TGF-β1 signaling) in human chondrocytes", "assay": "Western blot of phosphorylated Smad2 after 4 h treatment", "format": "cell-based", "details": "for activation of p-Smad2 with addition of pan-TGF-β-neutralizing antibody 1D11: with vs without 1D11", "description": "(§1) For western blot of 4 h PA treatments, cells were seeded in 6-well plates at a density of 600,000 cells/well and cultured for 24 h. […] Cells were then treated with PA in solution for 4 h in vitro. For western blot of 3-day PA treatments, cells were seeded in 6-well plates at a density of 230,000 cells/well and cultured for 24 h. Cells were then treated with PA in solution for 3 days in vitro.\n(§2) Protein was extracted from cells using Halt Protease and Phosphatase Inhibitor Cocktail (Thermo Scientific) and a BCA assay (Thermo Scientific) was performed to determine protein content of each sample. Cell protein was loaded into and separated using a 4-20% SDS-PAGE gel (Bio-Rad). It was then electrotransferred from the gel to a nitrocellulose membrane (Bio-Rad). The membranes were blocked with 10% milk solution (Bio-Rad) for 30 minutes followed by an overnight incubation with primary antibodies at 4° C. The following primary antibodies were used: rabbit anti-pSmad2 (1:1000, Cell Signaling), rabbit anti-Smad2 (1:1000, Cell Signaling), rabbit anti-Sox9 (1:500, Abcam), mouse anti-Aggrecan (1:500, ThermoFisher), rabbit anti-COMP/Cartilage oligomeric matrix protein (1:500, Abcam), mouse anti-Collagen II (1:500, ThermoFisher), and mouse anti-Actin (1:1000, Novus Bio). Membranes were then incubated with their corresponding secondary HRP-conjugated antibodies (1:1000, ThermoFisher). Protein signals were detected using Radiance Bioluminescent ECL substrate (Azure Biosystems). Densitometry analysis, standardized to total receptor content or actin as a control for protein loading, was performed using ImageJ software. For quantification, experimental triplicate samples were analyzed, and two different experiments were conducted."}, "[2]": {"tested_on": "collagen II, aggrecan and F-actin in human chondrocytes", "assay": "Immunocytochemistry staining and fluorescence intensity analysis after three days", "format": "cell-based", "details": "three days in vitro", "description": "For immunocytochemistry (ICC), 12-mm glass coverslips were coated with sterile filtered 0.01 mg/mL poly-D-lysine (Sigma-Aldrich) solution and incubated overnight at 37° C. The coverslips were washed three times with sterile water and air-dried for at least 30 minutes. Cells were seeded on coverslips at a density of approximately 3,000 cells/coverslip and cultured for 24 h. Cells were then treated with PA in solution for 3 days in vitro. Following treatment, cells were fixed in 4% paraformaldehyde for 15 minutes at room temperature.\n(§3) Fixed samples were permeabilized and blocked in a solution of 0.1% (v/v) Triton X-100 and 1% normal horse serum (Invitrogen) for 2 hours at room temperature. Samples were incubated with primary antibodies overnight at 4° C. The following primary antibodies were used: rabbit anti-Sox9 (1:500, Abcam), mouse anti-Aggrecan (1:500, ThermoFisher), mouse anti-Collagen II (1:500, ThermoFisher), and mouse anti-Nuclei (1:500, Sigma-Aldrich). The next day, samples were incubated with AlexaFluor 488 secondary antibody, AlexaFluor 555 secondary antibody, Phalloidin AlexaFluor 488, and/or Phalloidin AlexaFluor 633 (1:1000, Invitrogen) for 2-3 h at room temperature. For 2D cell culture, samples were then incubated with DAPI (1:1000, Invitrogen) for 10 minutes at room temperature. If not already on a glass coverslip, samples were mounted with Immu-Mount (Thermo Scientific) and imaged on a Nikon A1R Spectral microscope. Image analysis was performed using ImageJ software."}, "[3]": {"details": "cited from earlier work"}, "[4]": {"assay": "Dynamic light scattering of TGF-β1 mimetic peptide", "format": "physicochemical", "details": "peptide alone, 100 mol %, 1 wt %, 25° C.", "description": "DLS measurements were performed on a Malvern Zetasizer Nano ZSP light scattering spectrometer. The TGF-β1 mimetic peptide alone, without PA, was prepared at 1 wt % as previously described. During the sample measurement, the temperature was kept at 25° C. The sample was equilibrated for 30 seconds before each measurement was taken. The duration of each measurement was 10 seconds, and the measurement angle was 173° backscatter. The attenuator was determined by the instrument automatically, as was the number of accumulations for each run. Each measurement run was repeated 3 times."}, "[5]": {"tested_on": "collagen II, COMP, aggrecan and Sox9 in human chondrocytes", "assay": "Western blot of ECM proteins after three days treatment", "format": "cell-based", "details": "10 μM, three days in vitro", "description": "as §1, §2"}, "[6]": {"assay": "Transverse-relaxation (T2) NMR spectroscopy of PA assemblies", "format": "physicochemical", "details": "backbone PA assemblies", "description": "NMR spectra were acquired at 600 MHz on a Brucker Neo system with QCI-F cryoprobe. NMR spectra for PAs were recorded at 25° C. using TFA-d, H2O/D2O in 9/1 ratio (D2O contains 0.05 wt. % 3-(trimethylsilyl) propionic-2,2,3,3-d4 acid, sodium salt) as solvents. Chemical shifts are reported in part per million (ppm). The […] was 15 μs and typical spectra required 32 scans.\nThe spin-spin relaxation rates were measured using the Carr-Purcell-Gill-Meiboom pulse sequence with a delay time of 0.2 ms in a variable loop. The peak intensity data was fit to and exponential in the form:\n[formula] where τ is the length of the delay time, R2 is the spin-spin relaxation rate and b are the baseline.^2 Cell Culture"}, "[7]": {"assay": "Rheology of PA hydrogels (strain sweep, G′/G″ crossover)", "format": "physicochemical", "details": "PA gels, 10 mol % co-assemblies", "description": "Gels were made using 2 wt % PA solutions prepared as previously described, using 10 mol % co-assemblies of epitope PA with diluent PA. 12-well chamber slides (Ibidi) were coated with 0.01 mg/mL poly-D-lysine (Sigma-Aldrich) solution and incubated overnight at 37° C. The wells were washed three times with water and air-dried for at least 30 minutes. 120 μL of PA solution was pipetted evenly into the well and gelling solution comprised of 110 mM NaCl, 3 mM KCl, and 25 mM CaCl2 was pipetted dropwise on top of the PA solution. The gels were incubated at 37° C. for 30 minutes, and then excess gelling solution was removed.\nMeasurements were performed on an Anton Paar MCR302 rheometer with a 25 mm parallel-plate fixture. 120 μL of the PA/HA hybrid slurry was placed on the bottom plate and 30 μL of a 50 mM CaCl2/75 mM NaCl gelling solution was placed on the upper fixture. The fixture was lowered to a gap of 0.5 mm for 10 min during which time a 0.1% oscillatory strain was applied with a 10 rad/s angular frequency. The gap height was allowed to vary to keep the normal force at 0 N. Next, a strain sweep was performed at 10 rad/s from 0.1% to 100% strain to measure the strain to break the gel."}, "[8]": {"tested_on": "human chondrocytes encapsulated in PA hydrogels", "assay": "F-actin ICC and confocal microscopy of chondrocytes encapsulated in PA gels", "format": "cell-based", "details": "three days in vitro, equal concentrations of cells encapsulated", "description": "as §3\nChondrocytes were trypsinized and resuspended in growth media for counting, and then pelleted and resuspended to 6×10^7 cells/mL in growth media. The cell solution was mixed 1:2 v/v with sterile PA solution prepared at 3 wt % in 30 mM NaCl. For gels also encapsulating rhTGF-β1 protein (R&D Systems), soluble protein was added to PA solutions after thermal annealing. 120 μL of PA/cell solution was mixed thoroughly by pipetting gently and then placed into PDL-coated 12-well chamber slides (Ibidi). Sterile gelling solution, comprised of 110 mM NaCl, 3 mM KCl, and 25 mM CaCl2, was pipetted dropwise on top of the PA/cell solution and the gels were incubated for 30 minutes at 37° C. Following incubation, excess gelling solution was removed and 250 μL of growth media was added to each well. The media was removed after 3 days for LDH viability assays as described above. For ICC, after 3 days of in vitro culture, gels were fixed in 4% paraformaldehyde for 30 minutes at room temperature."}},
  "note": "Bridge positions count the residues as written; N and C are the ends. Ends that are not written are not given here. I, II: the chains in the order shown. * marks the point of attachment. Palmitoyl = CCCCCCCCCCCCCCCC(=O)*",
  "data": [
    {"substance": "rhTGF-β1: native recombinant human TGF-β1 (R&D Systems), positive control", "values": [
      {"measurement": "activation of p-Smad2 with addition of pan-TGF-β-neutralizing antibody 1D11", "setting": "[1]", "result": "effectively neutralized"},
      {"measurement": "aggrecan synthesis", "setting": "[2]; 10 μM, ICC", "result": "significantly increased aggrecan synthesis at similar levels"},
      {"measurement": "chondrocyte phenotype (F-actin staining)", "setting": "[2]", "result": "maintained healthy chondrocyte phenotypes and prevented hypertrophy"},
      {"measurement": "half-life in its active form in vivo", "setting": "[3]", "result": "2 to 3", "unit": "min"}
    ]},
    {"substance": "CESPLKRQC (disulfide 1-9 (inferred)) [TGF-β1 mimetic peptide, reference compound]", "values": [
      {"measurement": "hydrodynamic diameter of micelles", "setting": "[4]", "result": "approximately 2 nm"},
      {"measurement": "size of aggregates of micelles", "setting": "[4]", "result": "~200", "unit": "nm"},
      {"measurement": "p-Smad2 activation", "setting": "[1]; 50 μM, 4 h, 10 mol % co-assemblies", "result": "no activation"},
      {"measurement": "ECM synthesis (collagen II, COMP, aggrecan, Sox9)", "setting": "[5]", "result": "low activation"},
      {"measurement": "upregulation of collagen II and aggrecan", "setting": "[2]; 10 μM, ICC", "result": "little upregulation of either protein"}
    ]},
    {"substance": "C16-AEAE (Palmitoyl-AEAE-OH; SMILES CCCCCCCCCCCCCCCC(=O)N[C@@H](C)C(=O)N[C@@H](CCC(=O)O)C(=O)N[C@@H](C)C(=O)N[C@@H](CCC(=O)O)C(=O)O) [Backbone PA-b]", "values": [
      {"measurement": "1H spin-spin (T2) relaxation rate of terminal alkyl methyl protons", "setting": "[6]", "result": "20.49 ± 0.58", "unit": "s⁻¹"}
    ]},
    {"substance": "TGF PA-b: backbone PA SEQ ID NO: 8 conjugated to cyclic TGF-β1 mimetic peptide (SEQ ID NO: 1) by a linker; co-assembled with diluent Backbone PA-b (chain Palmitoyl-AEAEK-OH; peptide CESPLKRQC; disulfide II:1-II:9; not fully specified (some residues); also: co-assembled with diluent backbone PA-b)", "values": [
      {"measurement": "activation of p-Smad2 with addition of pan-TGF-β-neutralizing antibody 1D11", "setting": "[1]", "result": "effectively neutralized"}
    ]},
    {"substance": "C16-AAEE (Palmitoyl-AAEE-OH; SMILES CCCCCCCCCCCCCCCC(=O)N[C@@H](C)C(=O)N[C@@H](C)C(=O)N[C@@H](CCC(=O)O)C(=O)N[C@@H](CCC(=O)O)C(=O)O) [Backbone PA-a]", "values": [
      {"measurement": "1H spin-spin (T2) relaxation rate of terminal alkyl methyl protons", "setting": "[6]", "result": "3.67 ± 0.23", "unit": "s⁻¹"},
      {"measurement": "G′/G″ crossover % strain", "setting": "[7]", "result": "7.10 ± 1.49", "unit": "%"},
      {"measurement": "G′/G″ crossover storage modulus", "setting": "[7]", "result": "0.55 ± 0.13", "unit": "kPa"},
      {"measurement": "cells within the bulk of the gel", "setting": "[8]", "result": "Far fewer cells were visible"}
    ]}
  ]
}
